# Laboratory results taken from patent publication US7935853B2, “Micronized composition of a 2,4-disubstituted phenol derivative” (priority 2008, dated 2011).
# Test system: arthritis induced by injection of type II collagen in the mouse
# Assay: Model of arthritis induced by type II collagen in mice (CIA), hind paw plethysmometry
# Assay type: in vivo
# Settings: for Total hind paw volume (sum of both hind paws) / Oedema (difference in paw volume from basal values on day 21) in both hind paws: group mean n=10
# Experimental: The aim of the study was to determine the anti-inflammatory activity of the test item in a model of arthritis induced by injection of type II collagen in the mouse (CIA) and to compare the activity of two different formulations: micronized and non-micronized.
# Induction of arthritis was carried out by an initial exposure to type II bovine collagen by a subcutaneous injection at the base of the tail (induction phase).
# After a recovery time of 21 days, animals received a booster injection and approximately 4-5 weeks after the first injection there was an immune response with arthritis appearing in the extremities in the majority of the cases.
# Four experimental groups were used in the study with 10 animals in each group:
# Group D: Positive control: FCA+vehicle B.I.D.
# Group E: Micronized Test Item (Micro) 10 mg/kg B.I.D.
# Group F: Non-Micronized test item 10 mg/kg B.I.D.
# Group G: Reference item: Indomethacin 1 mg/kg Q.D.
# The dose administered to groups E and F was 10 mg/kg.
# The dose administered to group G was 1 mg/kg.
# The doses of the test and reference items were expressed as mg/Kg of compound administered to each animal.
# The test and reference items were administered in a solution of methylcellulose (0.25%: vehicle).
# The positive control group received the vehicle (methylcellulose 0.25%).
# The test and reference items, as well as the vehicle were administered orally at a dosing volume of 5 mls/kg.
# The route of administration used was oral by use of an intragastric cannula.
# On the day of start of the study each mouse was injected subcutaneously at the base of the tail with a first dose of 0.1 ml of an emulsion of bovine type II collagen (1 mg/mL) in Freund's Complete Adjuvant. Afterwards, on day 21 after this first injection, a second booster injection of type II collagen was administered to all animals. In this occasion the collagen suspension was done using Incomplete Freund's Adjuvant.
# Coinciding with the second booster injection on day 21 treatment with the test or reference items was started to the corresponding animals.
# Treatment with the test or reference items was carried out for 31 consecutive days (days 21-51 of the experimental period). Additionally, a recovery period was included at the end of the treatment period from day 52 to day 65 in order to evaluate the duration of any anti-inflammatory effect observed once dosing has been terminated.
# The animals' hind paw volume was measured by plethysmometry one day before the 1st injection of collagen, again one day before the second (booster) collagen injection (basal values) and then daily after administration of test/reference item until the end of the study. During the recovery period at the end of the study, hind paw volume was measured three times per week.
# Additionally the data was also represented graphically, depicting changes in total hind paw volume, as well as oedema (differences from basal (day 21) values).
# [1] = day 22, oral treatment days 21-51, listed as Group F
# [2] = day 23, oral treatment days 21-51, listed as Group F
# [3] = day 26, oral treatment days 21-51, listed as Group F
# [4] = day 27, oral treatment days 21-51, listed as Group F
# [5] = day 29, oral treatment days 21-51, listed as Group F
# [6] = day 30, oral treatment days 21-51, listed as Group F
# [7] = day 33, oral treatment days 21-51, listed as Group F
# [8] = day 34, oral treatment days 21-51, listed as Group F
# [9] = day 35, oral treatment days 21-51, listed as Group F
# [10] = day 36, oral treatment days 21-51, listed as Group F
# [11] = day 37, oral treatment days 21-51, listed as Group F
# [12] = day 41, oral treatment days 21-51, listed as Group F
# [13] = day 42, oral treatment days 21-51, listed as Group F
# [14] = day 43, oral treatment days 21-51, listed as Group F
# [15] = day 44, oral treatment days 21-51, listed as Group F
# [16] = day 47, oral treatment days 21-51, listed as Group F
# [17] = day 48, oral treatment days 21-51, listed as Group F
# [18] = day 49, oral treatment days 21-51, listed as Group F
# [19] = day 50, oral treatment days 21-51, listed as Group F
# [20] = day 51, oral treatment days 21-51, listed as Group F
# [21] = day 54, recovery period after treatment days 21-51, listed as Group F
# [22] = day 56, recovery period after treatment days 21-51, listed as Group F
# [23] = day 58, recovery period after treatment days 21-51, listed as Group F
# [24] = day 61, recovery period after treatment days 21-51, listed as Group F
# [25] = day 63, recovery period after treatment days 21-51, listed as Group F
# [26] = day 65, recovery period after treatment days 21-51, listed as Group F
smiles,measurement,setting,value
"Oc1c(I)cc(I)cc1I [Non-Micronized, 2,4,6-triiodophenol]",Total hind paw volume (sum of both hind paws),"day 0, before collagen and treatment, listed as Group F",0.189
same,Total hind paw volume (sum of both hind paws),"day 20, basal, before treatment, listed as Group F",0.243
same,Oedema (difference in paw volume from basal values on day 21) in both hind paws,[1],−0.003
same,Total hind paw volume (sum of both hind paws),[1],0.240
same,Oedema (difference in paw volume from basal values on day 21) in both hind paws,[2],0.007
same,Total hind paw volume (sum of both hind paws),[2],0.250
same,Oedema (difference in paw volume from basal values on day 21) in both hind paws,[3],0.010
same,Total hind paw volume (sum of both hind paws),[3],0.253
same,Oedema (difference in paw volume from basal values on day 21) in both hind paws,[4],−0.001
same,Total hind paw volume (sum of both hind paws),[4],0.242
same,Oedema (difference in paw volume from basal values on day 21) in both hind paws,[5],0.006
same,Total hind paw volume (sum of both hind paws),[5],0.248
same,Oedema (difference in paw volume from basal values on day 21) in both hind paws,[6],0.016
same,Total hind paw volume (sum of both hind paws),[6],0.259
same,Oedema (difference in paw volume from basal values on day 21) in both hind paws,[7],0.007
same,Total hind paw volume (sum of both hind paws),[7],0.250
same,Oedema (difference in paw volume from basal values on day 21) in both hind paws,[8],0.011
same,Total hind paw volume (sum of both hind paws),[8],0.254
same,Oedema (difference in paw volume from basal values on day 21) in both hind paws,[9],0.013
same,Total hind paw volume (sum of both hind paws),[9],0.255
same,Oedema (difference in paw volume from basal values on day 21) in both hind paws,[10],0.011
same,Total hind paw volume (sum of both hind paws),[10],0.254
same,Oedema (difference in paw volume from basal values on day 21) in both hind paws,[11],0.000
same,Total hind paw volume (sum of both hind paws),[11],0.243
same,Total hind paw volume (sum of both hind paws),"day 40, oral treatment days 21-51",0.273
same,Oedema (difference in paw volume from basal values on day 21) in both hind paws,"day 40, oral treatment days 21-51, listed as Group F",0.030
same,Oedema (difference in paw volume from basal values on day 21) in both hind paws,[12],0.028
same,Total hind paw volume (sum of both hind paws),[12],0.271
same,Oedema (difference in paw volume from basal values on day 21) in both hind paws,[13],0.021
same,Total hind paw volume (sum of both hind paws),[13],0.264
same,Oedema (difference in paw volume from basal values on day 21) in both hind paws,[14],0.013
same,Total hind paw volume (sum of both hind paws),[14],0.255
same,Oedema (difference in paw volume from basal values on day 21) in both hind paws,[15],0.006
same,Total hind paw volume (sum of both hind paws),[15],0.248
same,Oedema (difference in paw volume from basal values on day 21) in both hind paws,[16],0.031
same,Total hind paw volume (sum of both hind paws),[16],0.273
same,Oedema (difference in paw volume from basal values on day 21) in both hind paws,[17],0.034
same,Total hind paw volume (sum of both hind paws),[17],0.277
same,Oedema (difference in paw volume from basal values on day 21) in both hind paws,[18],0.039
same,Total hind paw volume (sum of both hind paws),[18],0.281
same,Oedema (difference in paw volume from basal values on day 21) in both hind paws,[19],0.046
same,Total hind paw volume (sum of both hind paws),[19],0.289
same,Oedema (difference in paw volume from basal values on day 21) in both hind paws,[20],0.046
same,Total hind paw volume (sum of both hind paws),[20],0.288
same,Oedema (difference in paw volume from basal values on day 21) in both hind paws,[21],0.065
same,Total hind paw volume (sum of both hind paws),[21],0.307
same,Oedema (difference in paw volume from basal values on day 21) in both hind paws,[22],0.062
same,Total hind paw volume (sum of both hind paws),[22],0.304
same,Oedema (difference in paw volume from basal values on day 21) in both hind paws,[23],0.070
same,Total hind paw volume (sum of both hind paws),[23],0.312
same,Oedema (difference in paw volume from basal values on day 21) in both hind paws,[24],0.063
same,Total hind paw volume (sum of both hind paws),[24],0.31
same,Oedema (difference in paw volume from basal values on day 21) in both hind paws,[25],0.073
same,Total hind paw volume (sum of both hind paws),[25],0.32
same,Oedema (difference in paw volume from basal values on day 21) in both hind paws,[26],0.072
same,Total hind paw volume (sum of both hind paws),[26],0.31
same,effect on hind paw oedema (in words),"test item 10 mg/kg BID, Indomethacin 1 mg/kg Q.D, oral",did not result in any significant inhibition
